From publication PMC10804372, “Degradation by Design: New Cyclin K Degraders from Old CDK Inhibitors” (ACS Chemical Biology, 2024)
Each block holds one molecule with its values, some of them ahead of it.

Assays:
CDK9 = details: cited from earlier work
Cyclin K [1] = assay: Cyclin K levels by Western blot after single-concentration treatment; format: cell-based, human; details: HEK293T cells, 1 μM for 2 h; for Remaining Cyclin K (%): quantified from Western blots, mean ± SD, three independent experiments; for cyclin K degradation: Western blot
Procedure: (§1) HEK293T human […] kidney cells were cultured in DMEM (Gibco/Life Technologies), containing 25 mM D-glucose, 4 mM L-glutamine, and 1 mM sodium pyruvate, and supplemented with 10% (v/v) FBS and 1% nonessential amino acids (Gibco/Life Technologies). Cells were incubated at 37 °C in a humidified atmosphere with 5% CO2.
(§2) Cells were washed with PBS and lysed (20 mM HEPES pH 7.5, 10% glycerol, 0.4 M KCl, 0.4% Triton X-100, 15 mM EDTA, and 1× protease and phosphatase inhibitors). The insoluble fraction was removed by centrifugation. Protein quantification was performed using a Bradford assay and compared to a BSA calibration curve. Equal amounts of lysates were run on SDS–PAGE 4–12% Bis–Tris Protein Gels (NuPAGE, Thermo Fisher Scientific) and then transferred onto Immobilon-P PVDF Membrane (Millipore, IPVH00010) using a Mini Trans-Blot Cell (Bio-Rad, 1703930). The membranes were blocked with 5% bovine albumin serum (BSA) in Tris-buffered saline with Tween 20 (TBS-T) and incubated with primary antibodies overnight at 4 °C. The membranes were washed three times with TBS-T and incubated with HRP-conjugated secondary antibody (BioRad) for 2 h. Membranes were washed again three times with TBS-T before being developed using Pierce ECL Western Blotting Substrate (Thermo, 32106) and visualized using LI-COR. Antibodies were purchased from Cell Signaling Technology: anti-GAPDH (D4C6R) and anti-DDB1 (D4C8) or Bethyl Laboratories: anti-Cyclin K (A301-939A). The following HRP-linked secondary antibodies were used by dilution in 5% BSA/TBS-T: antirabbit IgG (BioRad, 5213–2504) and antimouse IgG (BioRad, 103005).
(§3) Unedited blots containing the marker lane are available on request. Western blots were quantified using ImageJ. Cyclin K levels were normalized using GAPDH as a loading control. DC50 values were calculated from concentration–response curves using nonlinear regression fit to a 4-parameter curve by GraphPad Prism.

PAMPA permeability = format: in vitro ADME; details: for Papp: pH 7.4, PAMPA, pH7.4, read-out: pH7.4 Papp x 10^-6
Cyclin K [2] = assay: Cyclin K degradation concentration-response (DC50, DMax) by Western blot; format: cell-based, human; details: for DMax (%) / DC50: HEK293T, Western blot quantification, 3 biological repeats; for DC50: read-out: CycK DC50
Procedure: With the aim of comparing the degradation ability of the new analogues, we derived DC50 values by using Western blotting (Table 5). […] This approach has been previously used to improve the potency of BCL6 degraders.[33] We therefore also measured CDK12 affinity using the KINOMEscan binding assay (Table 5).[34]
as §1, §2, §3

CDK12 = target: T1, CDK12 (Homo sapiens, UniProt Q9NYV4); assay: KINOMEscan binding assay (Eurofins DiscoverX); details: for Kd: KINOMEscan
T1 construct: purchased Eurofins DiscoverX (KINOMEscan service)

HEK293T cells = assay: Proteome-wide quantitation by mass spectrometry (TMT); format: cell-based, human; details: for number of proteins showing at least a −0.5 log2 fold change / cyclin K log2 fold decrease: HEK293T, 1 μM; for number of proteins showing at least a −0.5 log2 fold change: 2 h treatment; for cyclin K log2 fold decrease: 2 h vs DMSO; for log2FC compound 21 / log2FC compound 37: 1 uM 2h vs DMSO
CDK5 = details: cited from earlier work
CDK1 = details: cited from earlier work

T1 sequence (Q9NYV4 whole entry): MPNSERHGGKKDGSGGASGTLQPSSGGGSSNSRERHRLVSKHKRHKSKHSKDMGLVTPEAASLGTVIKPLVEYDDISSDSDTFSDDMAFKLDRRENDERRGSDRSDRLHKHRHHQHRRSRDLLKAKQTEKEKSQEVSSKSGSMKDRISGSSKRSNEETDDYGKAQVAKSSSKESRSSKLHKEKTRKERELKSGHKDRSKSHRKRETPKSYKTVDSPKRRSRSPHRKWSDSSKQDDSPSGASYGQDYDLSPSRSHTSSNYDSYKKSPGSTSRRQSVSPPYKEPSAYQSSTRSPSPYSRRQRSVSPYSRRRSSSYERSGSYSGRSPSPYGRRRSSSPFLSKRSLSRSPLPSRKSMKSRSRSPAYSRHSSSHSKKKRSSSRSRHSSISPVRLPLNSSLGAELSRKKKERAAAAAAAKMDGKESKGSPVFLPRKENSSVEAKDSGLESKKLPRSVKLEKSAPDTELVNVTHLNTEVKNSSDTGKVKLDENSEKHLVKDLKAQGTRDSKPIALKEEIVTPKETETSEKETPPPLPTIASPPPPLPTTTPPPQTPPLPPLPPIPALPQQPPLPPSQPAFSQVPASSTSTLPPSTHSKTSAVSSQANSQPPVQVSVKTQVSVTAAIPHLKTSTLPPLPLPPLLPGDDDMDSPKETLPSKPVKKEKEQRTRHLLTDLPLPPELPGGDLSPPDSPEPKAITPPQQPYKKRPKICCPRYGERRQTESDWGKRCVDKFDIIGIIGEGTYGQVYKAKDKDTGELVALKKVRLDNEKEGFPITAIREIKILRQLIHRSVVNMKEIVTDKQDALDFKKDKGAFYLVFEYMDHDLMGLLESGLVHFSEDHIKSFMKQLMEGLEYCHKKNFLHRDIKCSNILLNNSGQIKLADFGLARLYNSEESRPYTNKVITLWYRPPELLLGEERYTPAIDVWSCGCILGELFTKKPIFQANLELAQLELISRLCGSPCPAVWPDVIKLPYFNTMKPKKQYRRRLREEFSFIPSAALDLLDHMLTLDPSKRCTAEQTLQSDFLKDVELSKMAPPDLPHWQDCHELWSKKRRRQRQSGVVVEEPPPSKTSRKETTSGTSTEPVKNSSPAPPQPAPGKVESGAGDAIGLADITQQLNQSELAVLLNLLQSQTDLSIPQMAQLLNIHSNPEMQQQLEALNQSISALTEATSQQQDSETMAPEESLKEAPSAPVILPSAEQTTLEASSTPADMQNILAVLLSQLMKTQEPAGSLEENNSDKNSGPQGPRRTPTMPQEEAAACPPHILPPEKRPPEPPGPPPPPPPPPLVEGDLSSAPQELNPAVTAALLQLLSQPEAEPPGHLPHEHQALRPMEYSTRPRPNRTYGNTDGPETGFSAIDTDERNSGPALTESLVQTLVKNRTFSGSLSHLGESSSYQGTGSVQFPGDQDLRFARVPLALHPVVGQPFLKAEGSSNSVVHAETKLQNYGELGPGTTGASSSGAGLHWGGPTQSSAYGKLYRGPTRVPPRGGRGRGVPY

SMILES: CC[C@H](CO)Nc1nc(NCc2ccccc2)c2ncn(C(C)C)c2n1 [compound 2, reference compound]
activity at CDK9 (CDK9): sub-μM activity
Remaining Cyclin K (%) (Cyclin K [1]): 99 ± 1%

SMILES: CC[C@H](CO)Nc1nc(NCc2ccc(C3CCCCC3)cc2)c2ncn(C(C)C)c2n1 [compound 23]
Papp (PAMPA permeability): 12.7 ×10⁻⁶ cm/s
cyclin K degradation (Cyclin K [1]): degradation ability was significantly reduced
Remaining Cyclin K (%) (Cyclin K [1]): 74 ± 10%

SMILES: CC[C@H](CO)Nc1nc(NCc2ccc(N3CCOCC3)cc2)c2ncn(C(C)C)c2n1 [compound 25]
PAMPA permeability (PAMPA permeability): comparable permeabilities
Papp (PAMPA permeability): 41 ×10⁻⁶ cm/s
cyclin K degradation (Cyclin K [1]): only partial degradation
Remaining Cyclin K (%) (Cyclin K [1]): 41 ± 23%

SMILES: OCCC1CCCCN1c1cc(NCc2ccc(C3=CCOCC3)cc2)n2ncc(Br)c2n1 (stereo not shown) [compound 37]
DMax (%) (Cyclin K [2]): 75%
DC50 (Cyclin K [2]): 41 nM
fold better CDK12 affinity versus CR8/seliciclib-core analogue (CDK12; 36 vs 1, 37 vs 21): 25 fold
Kd (CDK12): 12 nM
cyclin K degradation (Cyclin K [1]): only partial degradation
Remaining Cyclin K (%) (Cyclin K [1]): 32 ± 11%
number of proteins showing at least a −0.5 log2 fold change (HEK293T cells): 28 proteins
cyclin K log2 fold decrease (HEK293T cells): 0.75 log2 fold
log2FC compound 37 (HEK293T cells; protein ARF4): 0.5982
log2FC compound 37 (HEK293T cells; protein C1orf167): 0.8136
log2FC compound 37 (HEK293T cells; protein CBX6): -0.9913
log2FC compound 37 (HEK293T cells; protein CCNE2): 0.934
log2FC compound 37 (HEK293T cells; protein CCNK (Cyclin-K)): -0.7468
log2FC compound 37 (HEK293T cells; protein CD9): 0.636
log2FC compound 37 (HEK293T cells; protein CD59): 1.0368
log2FC compound 37 (HEK293T cells; protein CD63): 1.1474
log2FC compound 37 (HEK293T cells; protein CD151): 0.6898
log2FC compound 37 (HEK293T cells; protein CDKL5): 1.0373
log2FC compound 37 (HEK293T cells; protein CHCHD2): -1.0001
log2FC compound 37 (HEK293T cells; protein CHTOP): -0.8383
log2FC compound 37 (HEK293T cells; protein COPRS): 0.6
log2FC compound 37 (HEK293T cells; protein COX6B1): 0.6513
log2FC compound 37 (HEK293T cells; protein COX7A2): -1.2026
log2FC compound 37 (HEK293T cells; protein DCDC1): 1.1229
log2FC compound 37 (HEK293T cells; protein DDX56): -0.6203
log2FC compound 37 (HEK293T cells; protein DHX58): 0.8865
log2FC compound 37 (HEK293T cells; protein ECI1): 0.6918
log2FC compound 37 (HEK293T cells; protein EI24): 0.7719
log2FC compound 37 (HEK293T cells; protein FAM234A): 0.6256
log2FC compound 37 (HEK293T cells; protein FITM2): 0.6697
log2FC compound 37 (HEK293T cells; protein FYTTD1): -2.375
log2FC compound 37 (HEK293T cells; protein H2AC6): -2.0131
log2FC compound 37 (HEK293T cells; protein H2AC14): -1.9547
log2FC compound 37 (HEK293T cells; protein HES1): -0.614
log2FC compound 37 (HEK293T cells; protein HEY1): -0.6221
log2FC compound 37 (HEK293T cells; protein HMGN2): -0.636
log2FC compound 37 (HEK293T cells; protein KCTD1): 0.7125
log2FC compound 37 (HEK293T cells; protein LIPA): 0.6704
log2FC compound 37 (HEK293T cells; protein LPCAT3): 1.2861
log2FC compound 37 (HEK293T cells; protein LPIN2): 0.6164
log2FC compound 37 (HEK293T cells; protein LSM1): 0.8572
log2FC compound 37 (HEK293T cells; protein MBTPS2): 0.6567
log2FC compound 37 (HEK293T cells; protein MEIS1): -0.7346
log2FC compound 37 (HEK293T cells; protein MGARP): 0.6836
log2FC compound 37 (HEK293T cells; protein MSMO1): 0.6345
log2FC compound 37 (HEK293T cells; protein MT-ND4): 0.6222
log2FC compound 37 (HEK293T cells; protein NSA2): -1.3835
log2FC compound 37 (HEK293T cells; protein NXT2): 1.1373
log2FC compound 37 (HEK293T cells; protein PPP1CB): -0.7306
log2FC compound 37 (HEK293T cells; protein PPP1R15B): -0.7195
log2FC compound 37 (HEK293T cells; protein PRNP): 0.8396
log2FC compound 37 (HEK293T cells; protein RER1): 0.5962
log2FC compound 37 (HEK293T cells; protein RPF1): -0.9869
log2FC compound 37 (HEK293T cells; protein RPS14): -0.5979
log2FC compound 37 (HEK293T cells; protein RPS29): -0.7373
log2FC compound 37 (HEK293T cells; protein SIAE): 0.6299
log2FC compound 37 (HEK293T cells; protein SLC44A2): 0.8263
log2FC compound 37 (HEK293T cells; protein SNAI2): -1.0919
log2FC compound 37 (HEK293T cells; protein SURF6): -0.5977
log2FC compound 37 (HEK293T cells; protein TMSB4X): -0.7637
log2FC compound 37 (HEK293T cells; protein TOB1): -1.2431
log2FC compound 37 (HEK293T cells; protein TOB2): -0.8728
log2FC compound 37 (HEK293T cells; protein TVP23C): 0.6132
log2FC compound 37 (HEK293T cells; protein WHAMM): -1.0385
log2FC compound 37 (HEK293T cells; protein ZBTB17): 0.799
log2FC compound 37 (HEK293T cells; protein ZKSCAN2): -0.5989
log2FC compound 37 (HEK293T cells; protein ZNF92): -0.7406
log2FC compound 37 (HEK293T cells; protein ZNF385A): -0.6523

SMILES: CCc1cnn2c(NCc3ccc[n+]([O-])c3)cc(N3CCCC[C@H]3CCO)nc12 [dinaciclib]
activity at CDK5 (CDK5): sub-μM activity
activity at CDK1 (CDK1): sub-μM activity

More lines, main results first:

Papp (PAMPA permeability): < 0.3 ×10⁻⁶ cm/s
SMILES: CC[C@H](CO)Nc1nc(NCc2ccc(-c3ccc(O)cn3)cc2)c2ncn(C(C)C)c2n1 [compound 8]
Remaining Cyclin K (%) (Cyclin K [1]): 94 ± 9%

DC50 (Cyclin K [2]): 18 nM
Papp (PAMPA permeability): < 0.2 ×10⁻⁶ cm/s
Kd (CDK12): 86 nM
SMILES: CC[C@H](CO)Nc1nc(NCc2ccc(-c3cc(=O)cc[nH]3)cc2)c2ncn(C(C)C)c2n1 [compound 15]
DMax (%) (Cyclin K [2]): >95%
cyclin K degradation (Cyclin K [1]): total loss of degradation ability
Remaining Cyclin K (%) (Cyclin K [1]): 89 ± 11%

Papp (PAMPA permeability): < 0.4 ×10⁻⁶ cm/s
SMILES: CC[C@H](CO)Nc1nc(NCc2ccc(-c3ncccc3O)cc2)c2ncn(C(C)C)c2n1 [compound 20]
cyclin K degradation (Cyclin K [1]): reduced degradation ability compared to CR8
Remaining Cyclin K (%) (Cyclin K [1]): 35 ± 3%

DC50 (Cyclin K [2]): 32 nM
PAMPA permeability (PAMPA permeability): comparable permeabilities
Papp (PAMPA permeability): 40.2 ×10⁻⁶ cm/s
Kd (CDK12): 280 nM
SMILES: CC[C@H](CO)Nc1nc(NCc2ccc(C3=CCOCC3)cc2)c2ncn(C(C)C)c2n1 [compound 21]
DMax (%) (Cyclin K [2]): >95%
cyclin K degradation (Cyclin K [1]): complete degradation comparable to CR8
Remaining Cyclin K (%) (Cyclin K [1]): 1 ± 1%
number of proteins showing at least a −0.5 log2 fold change (HEK293T cells): six
cyclin K log2 fold decrease (HEK293T cells): 2.47 log2 fold
log2FC compound 21 (HEK293T cells; protein CBX6): -0.5911
log2FC compound 21 (HEK293T cells; protein CCNK (Cyclin-K)): -2.4569
log2FC compound 21 (HEK293T cells; protein CDK13): -0.9121
log2FC compound 21 (HEK293T cells; protein FYTTD1): -0.5054
log2FC compound 21 (HEK293T cells; protein HES1): 0.4216

DC50 (Cyclin K [2]): 199 nM
Papp (PAMPA permeability): 33.7 ×10⁻⁶ cm/s
Kd (CDK12): 640 nM
SMILES: CC[C@H](CO)Nc1nc(NCc2ccc(-c3ccco3)cc2)c2ncn(C(C)C)c2n1 [compound 29]
DMax (%) (Cyclin K [2]): >95%
fold decrease in degradation ability versus pyridine counterpart (Cyclin K [2]; furan analogues vs 1 (CR8), 36, 40): 4–8 fold
cyclin K degradation (Cyclin K [1]): complete degradation
Remaining Cyclin K (%) (Cyclin K [1]): 3 ± 2%

Papp (PAMPA permeability): < 0.3 ×10⁻⁶ cm/s
SMILES: CC[C@H](CO)Nc1nc(NCc2ccc(-c3cn(C)cn3)cc2)c2ncn(C(C)C)c2n1 [compound 30]
cyclin K degradation (Cyclin K [1]): decreased degradation ability
Remaining Cyclin K (%) (Cyclin K [1]): 38 ± 21%

PAMPA permeability (PAMPA permeability): low permeability
Papp (PAMPA permeability): < 0.2 ×10⁻⁶ cm/s
SMILES: CC[C@H](CO)Nc1nc(NCc2ccc(-c3cn[nH]c3)cc2)c2ncn(C(C)C)c2n1 [compound 31]
cyclin K degradation (Cyclin K [1]): complete loss of degradation
Remaining Cyclin K (%) (Cyclin K [1]): 93 ± 10%
